Biological target: T1, IdeC (Immunoglobulin G degrading enzyme of S. canis) (Streptococcus canis, UniProt A0A3P5YAY8)
T1 construct: gene ide; full-length construct 30-339 as printed for the C94S crystal form), His6 tag from pQE30, E. coli M15 pREP, Ni-TED purified, ~35 kDa, mainly monomer; printed PDB entries are of C94S forms
Assay: feline and canine IgG cleavage, SDS-PAGE
Format: biochemical
Conditions: 2.5 uM inhibitor, 30 min preincubation at room temperature; IgG 37 C 2.5 h; cysteine protease inhibitor, irreversible (general statement)

T1 sequence (A0A3P5YAY8 entry or part of it): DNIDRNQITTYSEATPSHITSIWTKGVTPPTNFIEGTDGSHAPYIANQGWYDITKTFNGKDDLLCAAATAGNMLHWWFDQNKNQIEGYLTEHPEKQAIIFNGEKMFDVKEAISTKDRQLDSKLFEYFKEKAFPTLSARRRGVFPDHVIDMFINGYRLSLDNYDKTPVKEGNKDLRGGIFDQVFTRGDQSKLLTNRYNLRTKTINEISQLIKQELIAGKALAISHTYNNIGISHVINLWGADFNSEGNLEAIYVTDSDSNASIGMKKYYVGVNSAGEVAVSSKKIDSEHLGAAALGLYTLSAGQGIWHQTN

For `CC(C)C[C@H](NC(=O)[C@@H]1O[C@H]1C(=O)O)C(=O)NCCCCN=C(N)N` [E-64], the “feline and canine IgG cleavage, SDS-PAGE” value was “the cysteine protease inhibitors Iodo and E-64 resulted in weaker cleavage product bands”.
